Test results as given in US7727740B1, “Methods for determining whether a chemical agent modulates enzymatic activity of an L-2-hydroxy acid oxidase” (Merck Sharp & Dohme Corp., priority 2005, dated 2010).

Tests used:
Assay in all cases: Km determination of hydroxy acid oxidase activity (DCIP-coupled)
Type in all cases: biochemical
human Hao2 = molecular target: T1, human Hao2 (Homo sapiens, UniProt Q9NYQ3); settings: human Hao2 enzyme activity against the substrate; FIG. 1A
T1 construct: made in house; host or cells: E. coli BL21-codonplus-RIPL
T1 sequence (Q9NYQ3 1-351): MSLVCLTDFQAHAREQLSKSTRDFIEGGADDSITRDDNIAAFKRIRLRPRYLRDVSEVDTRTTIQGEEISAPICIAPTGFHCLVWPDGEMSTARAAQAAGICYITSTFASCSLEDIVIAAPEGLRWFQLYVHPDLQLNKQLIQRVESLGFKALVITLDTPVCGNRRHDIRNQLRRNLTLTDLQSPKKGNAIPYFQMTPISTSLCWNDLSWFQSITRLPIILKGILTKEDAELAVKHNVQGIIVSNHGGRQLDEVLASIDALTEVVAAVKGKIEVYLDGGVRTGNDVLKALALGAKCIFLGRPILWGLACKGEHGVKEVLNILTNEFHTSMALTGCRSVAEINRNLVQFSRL
Method: (§1) The hydroxyl acid oxidase activity of the Hao enzymes was assayed for oxidation of the enzyme substrate 2-hydroxyoctanoate by monitoring the coupled reduction of 2,6-dichloroindophenol (DCIP) at 605 nm.
(§2) In order to determine the Km of the enzyme for a given substrate, 20 μl/well of various concentrations of the substrate 2-hydroxyoctanoate were diluted in the assay buffer (100 mM Kpi, 1 mM EDTA and 0.1% BSA) and 175 μl/well of 50 μM 2-6-dichloroindophenol (DCIP) diluted in the same assay buffer was added to a 96-well plate. The reaction was started by the addition of 5 μl/well of the Hao enzyme, and the change in A605 at room temperature (18° C.) was measured over time. An extinction coefficient of […] for DCIP at 605 nm may be used for all calculations. One unit of activity may be defined as the reduction of 1 μmol of DCIP in 1 min (see Jones, J. M., et al., J. Biol. Chem. 275:12590-12597, 2000).

mouse Hao3 = molecular target: T2, mouse Hao3 (Mus musculus, UniProt Q9NYQ2, S203T); settings: mouse Hao3 enzyme activity against the substrate; FIG. 1C
T2 construct: made in house; host or cells: E. coli BL21-codonplus-RIPL
T2 sequence (Q9NYQ2 1-353 S203T): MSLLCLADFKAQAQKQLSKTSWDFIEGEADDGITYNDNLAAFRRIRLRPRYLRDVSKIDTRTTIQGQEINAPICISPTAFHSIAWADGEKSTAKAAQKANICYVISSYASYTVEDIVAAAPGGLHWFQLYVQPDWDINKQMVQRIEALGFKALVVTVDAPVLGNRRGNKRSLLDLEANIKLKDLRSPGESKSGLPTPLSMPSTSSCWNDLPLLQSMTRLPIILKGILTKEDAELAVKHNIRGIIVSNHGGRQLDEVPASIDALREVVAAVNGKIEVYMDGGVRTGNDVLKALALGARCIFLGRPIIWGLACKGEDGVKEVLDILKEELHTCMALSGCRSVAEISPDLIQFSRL
Method: as §1, §2

rat Hao2 = molecular target: T3, rat Hao2 (Rattus norvegicus, UniProt Q07523); settings: rat Hao2 enzyme activity against the substrate; FIG. 1B
T3 sequence (Q07523 1-353): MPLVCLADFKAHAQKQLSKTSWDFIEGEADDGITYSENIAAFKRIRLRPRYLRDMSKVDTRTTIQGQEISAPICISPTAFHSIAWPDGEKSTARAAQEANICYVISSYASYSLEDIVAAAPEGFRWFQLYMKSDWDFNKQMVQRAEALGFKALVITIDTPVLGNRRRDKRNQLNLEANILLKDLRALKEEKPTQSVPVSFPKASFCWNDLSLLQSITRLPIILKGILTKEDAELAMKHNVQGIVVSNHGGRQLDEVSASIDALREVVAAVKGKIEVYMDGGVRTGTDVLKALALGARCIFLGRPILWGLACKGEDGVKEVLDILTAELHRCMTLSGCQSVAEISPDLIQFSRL
Method: as §1, §2

SMILES: CCCCCCC(O)C(=O)O (stereo not drawn) [2-hydroxyoctanoate]
- Km (human Hao2): 735 µM
- Km (mouse Hao3): 76 µM
- Km (rat Hao2): 43 µM
